The values below come from patent US20140378380A1, “USE OF UNACYLATED GHRELIN, FRAGMENTS AND ANALOGS THEREOF AS ANTIOXIDANT” (Alizé Pharma SAS, priority 2013, published 2014).

Ends that are not written are not given here. * marks the point of attachment. Octanoyl = CCCCCCCC(=O)*

For one test, the system named is primary SCs. The experiment in a line: Primary SCs from normo-perfused muscles subjected to in vitro ischemia. Format: cell-based, mice. The note with it: SB202190 1 μmol/L added; in vitro ischemia. As for the experimental part:
(§1) SCs were isolated from gastrocnemius muscles of C57BL/6J wild type mice subjected to ischemia or C57BL/6J mice lacking the GHSR1a and ghrelin genes (10 mice, kind gift of Professor M. Tschöp)^39. To obtain SCs, muscle samples were subjected to enzymatic digestion as described^45. In selected experiments, SCs were recovered from normo-perfused muscles and subjected to in-vitro ischemia in presence of saline, AG (1 μmol/L) or UAG (1 μmol/L). In-vitro ischemia was induced by incubating cells in DMEM+2% FCS at 5% CO2/95% N2 humidified atmosphere, yielding 1% O2 concentrations for 24 h^18. The in-vitro ischemia was also performed in the presence of SB202190 (1 μmol/L).
(§2) SC cell-cycle progression was evaluated by evaluating the percentage of PCNA-positive cells or by FACS analysis as previously described^46. The percentage of cells in each cell cycle phase was determined by ModFit LT software (Verity Software House. Inc, topsham, ME, USA). Celss proliferation was also assayed by evaluating the percentage of PCNA-positive cells by FACS analysis.
(§3) Cells were lysed and protein detection was obtained as previously described^47. Cells were lysed (50 mmol/L Tris HCl [pH 8.3], 1% Triton X-100, 10 mmol/L PMSF, 100 U/ml aprotinin, 10 μmol/L leupeptin) and protein concentrations were obtained as previously described^47. […] Densitometric analysis was used to calculate the differences in the fold induction of protein levels and normalized to tubulin, a actin or p38MAPK content. Values are reported as relative amount
(§4) Intracellular ROS production was evaluated using DCF-DA (5-(and-6)-carboxy-2′,7′-dichlorofluorescein diacetate, […] final concentration) (Molecular Probe, Invitrogen) assay as previously described^23. The formation of TBARS was determined in muscles using the OXI-TEK kit (ZeptoMetrix Corp.) and a luminescence spectrometer (Bio-Rad Laboratories, Hercules, Calif.) with excitation set at 530 nm, emission at 550 nm to measure in-vivo oxidative stress levels^33.
Total RNA was isolated using TRIzol reagent (Invitrogen) from SCs recovered from muscles of treated animals or from SCs subjected to in-vitro ischemia. miR-221/222 expression was evaluated by qRT-PCR as previously described^48. Loss-of-function experiments were performed in SCs transfected for 48 h with anti-miRNA negative control, anti-miR-221/222 antagonists (Applied Biosystem, Foxter Cyto CA, USA), according to the manufacturer's instructions^48.
To obtain SOD-2 inactivation, SCs were transiently transfected with siRNA for SOD-2 or with duplex siRNAs (Qiagen, Valencia, Calif., USA) as previously described^44. Transfection was performed according to the manufacturer's instructions. Whole cell extracts were processed 48 h after transfection. Cell viability was evaluated at the end of each experiment. […]

For a further test, the system named is C57BL/6J mice. Kind of test: Murine hind-limb ischemia model (foot damage score, histology, IF, TBARS). Format: in vivo. As for the experimental part: Male C57BL/6J mice (Charles River Lab., Wilmington, Mass., USA) were anesthetized and unilateral hind limb ischemia was induced as described^42. The normo-perfused contralateral limb of each mouse was used as an internal control. After hind-limb ischemia, animals (18 mice per group) were treated by intra-peritoneal injection daily from 0 to day 21 with either saline, AG ([…]) or UAG ([…]). In selected experiments, mice received intramuscular injections of pre-miR oligonucleotides (5 mice/group). To induce toxic damage, 100 μl of 1% barium chloride (BaCl2, Sigma Aldrich) was injected unilaterally into the hind limb (9 mice). Mice were treated according to European Guidelines and policies as approved by the University of Turin Ethical Committee.
Semiquantitative estimation (by repeated measures analyzed with ANOVA and Newman-Keuls Multiple Comparison test) of foot damage was performed serially using the following classification: 3=dragging of foot (foot necrosis), 2=no dragging but no plantar flexion (foot damage), 1=plantar flexion but no toe flexion (toe damage), and 0=flexing the toes to resist gentle traction on the tail (no damage)^43.
Gastrocnemius muscle sections from ischemic or normo-perfused limbs were stained with hematoxylin and eosin for histological analysis. The proportion of fibers with central nuclei (regenerating fibers) was measured by MetaMorph software (Life Sciences Research Imaging Systems) in the injured area and the cross-sectional areas of the fibers in the injured and non-injured areas. For IF analysis, muscle sections were processed as described previously^44. The number of cells expressing the indicated markers or CD31 positive vessels was evaluated as previously described^34.
as §4

The next test concerns SCs from double KO mice. The experiment in a line: SCs from double KO mice (lacking GHSR1a and ghrelin genes) subjected to in vitro ischemia. Format: cell-based. The note with it: DCF-DA. As for the experimental part:
as §1, §2, §3, §4

For test [1] the following is noted: U.S. Pat. Nos. 8,222,217 and 8,318,664; cited from earlier work.
Test [2] deals with C2C12 mouse muscular cell line. The experiment in a line: ROS production (DCF-DA) in C2C12 cells subjected to oxidative stress. In kind it is cell-based. The note with it: for protective effect on C2C12 cells against oxidative stress: oxidative stress by hypoxia, AGEs, hyperglycemia or H2O2, 1 μmol/L; for retention of the functions of UAG: results provided herein. As for the experimental part:
Kinetic analysis of ROS production was evaluated by using DCF-DA (5-(and-6)-carboxy-2′,7′-dichlorofluorescein diacetate, 0.5 μmol/L final concentration) (Molecular Probe, Invitrogen) assay. C2C12 cells were cultured with 400 μg/ml Advanced Glycated End-product (AGE) or 25 mM glucose (high glucose HG) for 48 h, H2O2 (100 μM) for 2 h. In parallel experiments C2C12 cells were subjected to hypoxia (DMEM+2% FCS in a 5% CO2-95% N2 humidified atmosphere, yielding to 1% O2 concentrations for 24 h). UAG (1 μmol/L) AZP 531 (1 μmol/L) or AZP-502 (1 μmol/L) was added where indicated.

In the case of `Oc1ccc(-c2nc(-c3ccncc3)c(-c3ccc(F)cc3)[nH]2)cc1` [SB202190, reference compound], in the test on primary SCs, the “MyoD and myogenin expression in SCs exposed to UAG” value was “prevented MyoD and myogenin expression”; the “cell-cycle entry of SCs exposed to UAG” value is given as “blocked cell-cycle entry”.

Regarding “AG: 28 amino acid peptide characterized by the presence of an n-octanoyl modification on the Ser3 residue (GSS(Octanoyl)FLSPEHQRVQQRKESKKPPAKLQPR; UniProt Q9UBU3 24-51, looked up) [reference compound]”, the “concentration of TBARS in ischemic muscles” value with C57BL/6J mice (gastrocnemius muscle) is on record as “Significant increases”. Also, the “capillary density, ischemic vs contralateral control muscle of the same animals” value with C57BL/6J mice (ischemic vs normo-perfused muscle) is given as “significantly lower capillary density”. Besides, the “protection against ischemia-induced damage (in vivo effects)” value with C57BL/6J mice (overall conclusion) is recorded as “failure to detect in vivo effects”. In the test with C57BL/6J mice (unilateral hind-limb ischemia, i.p. daily from day 0 to day 21, vs saline), the “foot damage (functional score)” value was “significantly higher”. The “protection of SCs from ROS generation” value in the test with SCs from double KO mice is “unlike AG”.

As for EHQRVQ [UAG (8-13)], in test [1], the “activity on glucose, insulin and lipid metabolisms relative to UAG full length” value is given as “retain the activity of UAG full length”.

For the compound “Glu-His-Gln-Arg (EHQR; listed as Homo sapiens) [UAG (8-11)]”, the “activity on glucose, insulin and lipid metabolisms relative to UAG full length” value in test [1] is “retain the activity of UAG full length”.

With “Glu-His-Gln-Arg-Val (EHQRV; listed as Homo sapiens) [UAG (8-12)]”, the “activity on glucose, insulin and lipid metabolisms relative to UAG full length” value in test [1] is on record as “retain the activity of UAG full length”.

In the case of “His-Gln-Arg (HQR; listed as Homo sapiens) [UAG (9-11)]”, the “activity on glucose, insulin and lipid metabolisms relative to UAG full length” value in test [1] is reported as “retain the activity of UAG full length”.

For the compound “His-Gln-Arg-Val (HQRV; listed as Homo sapiens) [UAG (9-12)]”, the “activity on glucose, insulin and lipid metabolisms relative to UAG full length” value in test [1] was “retain the activity of UAG full length”.

Consider SPEHQRVQ [UAG (6-13)], for which, in test [2], the “protective effect on C2C12 cells against oxidative stress” value is recorded as “have a protective effect” and the “retention of the functions of UAG” value is recorded as “retain the functions of UAG”. Further, the “activity on glucose, insulin and lipid metabolisms relative to UAG full length” value in test [1] is listed as “retain the activity of UAG full length”.

Turning to “Ser-Pro-Glu-His-Gln-Arg-Val-Gln (cycl) (SPEHQRVQ; cyclic; (1)..(8) Cyclic; listed as Homo sapiens) [UAG(6-13)cyclic]”, in test [2], the “protective effect on C2C12 cells against oxidative stress” value is on record as “have a protective effect” and the “retention of the functions of UAG” value was “retain the functions of UAG”.
